“And” between values parts separate entries of the source, which are not always exact repeats. Identical values can stand only once.
Assays:
[1] = system: CE activity in human biopsy whole tissue sonicates; test: Esterase assay (o-NPA conversion) with human biopsy extracts; assay type: biochemical
Procedure: Using human intestinal mucosal biopsy tissue, the conversion of o-NPA to nitrophenol by whole tissue sonicates was monitored. CE activity was identified in both small intestine and colon samples, with activity levels in small intestine being much less than the levels seen with human liver.
Biopsies of human intestine were obtained from the Cooperative Human Tissue Network (Birmingham, Ala.). The samples were ground under liquid nitrogen and the resulting powder sonicated in 50 mM Hepes, pH 7.4, on ice.
(§1) Esterase activity was determined in whole tissue sonicates using a spectrophotometric assay with o-nitrophenol acetate as a substrate (Potter et al. 1998 Cancer Res. 52:2646-2651; Beaufay et al. 1974 J. Cell Biol. 61:188-200). Protein concentrations were calculated using BioRad protein assay reagent (Hercules, Calif.) with bovine serum albumin as a standard. Enzyme activities were calculated as μmoles of o-nitrophenol produced per minute per mg of total protein.

[2] = system: COS-7 cells (pCIneo, no enzyme); test: Esterase assay (o-NPA), COS-7 cells transfected with pCIneo; assay type: biochemical, monkey; settings: plasmid pCIneo
Procedure: as §1

[3] = molecular target: T1, human intestinal CE (hiCE) (Homo sapiens, UniProt O00748); test: Esterase assay (o-NPA), COS-7 cells expressing hiCE; assay type: biochemical; settings: plasmid pCIhiCE, media
T1 construct: expressed in transfected cells; host or cells: COS-7 (sonicates of transiently transfected cells)
T1 sequence (O00748 27-559): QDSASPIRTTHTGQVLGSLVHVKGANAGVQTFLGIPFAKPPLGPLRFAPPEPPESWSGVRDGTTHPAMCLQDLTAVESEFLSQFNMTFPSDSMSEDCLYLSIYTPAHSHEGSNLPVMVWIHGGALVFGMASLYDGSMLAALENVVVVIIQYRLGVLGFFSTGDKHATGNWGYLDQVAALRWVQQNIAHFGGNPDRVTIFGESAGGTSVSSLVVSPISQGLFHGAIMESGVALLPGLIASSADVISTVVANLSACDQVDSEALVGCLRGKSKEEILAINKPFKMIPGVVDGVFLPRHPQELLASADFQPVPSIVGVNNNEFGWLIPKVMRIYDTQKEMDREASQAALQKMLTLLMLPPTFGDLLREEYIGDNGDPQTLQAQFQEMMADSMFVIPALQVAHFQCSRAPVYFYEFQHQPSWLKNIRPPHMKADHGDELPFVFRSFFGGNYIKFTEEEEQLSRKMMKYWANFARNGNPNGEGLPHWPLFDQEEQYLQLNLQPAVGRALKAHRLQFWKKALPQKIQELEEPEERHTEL
Procedure: as §1

human liver CE (hCE1) = molecular target: T2, human liver CE (hCE1) (Homo sapiens, UniProt P23141); test: Esterase assay (o-NPA), COS-7 cells expressing hCE1; assay type: biochemical; settings: plasmid pCIHUMCAR, enzyme hCE1
T2 construct: expressed in transfected cells; host or cells: COS-7 (sonicates of transiently transfected cells)
T2 sequence (P23141 18-567): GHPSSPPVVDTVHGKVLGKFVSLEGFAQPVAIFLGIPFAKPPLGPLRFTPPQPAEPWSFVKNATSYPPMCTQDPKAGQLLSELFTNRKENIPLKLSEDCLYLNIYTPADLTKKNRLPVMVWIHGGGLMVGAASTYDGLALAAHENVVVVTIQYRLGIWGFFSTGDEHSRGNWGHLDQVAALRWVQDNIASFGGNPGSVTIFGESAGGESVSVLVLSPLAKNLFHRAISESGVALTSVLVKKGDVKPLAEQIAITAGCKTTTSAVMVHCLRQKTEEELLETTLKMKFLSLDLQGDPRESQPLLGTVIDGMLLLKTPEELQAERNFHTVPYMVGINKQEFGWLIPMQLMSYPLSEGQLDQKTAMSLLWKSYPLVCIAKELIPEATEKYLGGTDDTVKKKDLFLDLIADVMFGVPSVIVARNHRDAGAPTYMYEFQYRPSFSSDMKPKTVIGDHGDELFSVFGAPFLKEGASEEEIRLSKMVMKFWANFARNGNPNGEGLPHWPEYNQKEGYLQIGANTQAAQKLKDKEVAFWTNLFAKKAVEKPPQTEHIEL
Procedure: as §1

rabbit liver CE = molecular target: T3, rabbit liver CE (Oryctolagus cuniculus, UniProt P12337); test: Esterase assay (o-NPA), COS-7 cells expressing rabbit CE; assay type: biochemical; design: To amplify a full length rabbit CE cDNA, oligonucleotide primers RabNTERM; expressed in transfected cells; host or cells: COS-7 (sonicates of transiently transfected cells); settings: plasmid pCIRAB, enzyme rabbit
T3 sequence (P12337 19-565): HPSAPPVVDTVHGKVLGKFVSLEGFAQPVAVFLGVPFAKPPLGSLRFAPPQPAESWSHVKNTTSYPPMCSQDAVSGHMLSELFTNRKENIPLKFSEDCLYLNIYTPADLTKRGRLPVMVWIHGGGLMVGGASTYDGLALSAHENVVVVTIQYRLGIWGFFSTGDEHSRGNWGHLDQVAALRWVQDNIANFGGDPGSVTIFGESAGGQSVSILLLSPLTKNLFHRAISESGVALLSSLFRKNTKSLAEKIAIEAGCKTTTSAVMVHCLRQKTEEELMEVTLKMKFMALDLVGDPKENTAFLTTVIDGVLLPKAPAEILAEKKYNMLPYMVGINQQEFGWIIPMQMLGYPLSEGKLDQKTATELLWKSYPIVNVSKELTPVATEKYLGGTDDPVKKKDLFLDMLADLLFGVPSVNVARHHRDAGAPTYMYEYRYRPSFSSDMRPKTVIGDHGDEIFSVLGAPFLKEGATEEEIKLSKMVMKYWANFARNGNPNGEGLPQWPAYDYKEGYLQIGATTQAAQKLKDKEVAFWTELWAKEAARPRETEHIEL
Procedure: as §1

o-NPA Conversion [3]: 30.9 ± 2.8 µmol/min/mg
o-NPA Conversion (human liver CE (hCE1)): 4780.3 ± 279.8 µmol/min/mg
o-NPA Conversion (rabbit liver CE): 2755.5 ± 271.2 µmol/min/mg
Structure (SMILES): CC(=O)Oc1ccccc1[N+](=O)[O-] [o-NPA, o-nitrophenyl acetate]
o-NPA Conversion ([1]; human colon biopsy extract): 46.5 ± 1.2 µmol/min/mg and 86.3 ± 5.2 µmol/min/mg and 75.9 ± 2.6 µmol/min/mg
o-NPA Conversion ([1]; human small intestine biopsy extract): 113.0 ± 9.2 µmol/min/mg and 67.6 ± 4.1 µmol/min/mg and 61.0 ± 2.0 µmol/min/mg
o-NPA Conversion ([2]; enzyme none): 6.7 ± 0.15 µmol/min/mg
o-NPA Conversion ([2]; media): 13.3 ± 2.7 µmol/min/mg

From patent US7452717B2, “Compositions and methods for sensitizing and inhibiting growth of human tumor cells” (St. Jude Children's Research Hospital, priority 1998, dated 2008)
